Measured values: US20260159486A1, “BENZO[H]QUINAZOLINE-4-AMINE DERIVATIVES FOR THE TREATMENT OF CANCER” (Redona Therapeutics, Inc., priority 2021, published 2026)

Experiments:
[1] = tested on: CAL-51 cells; test: CAL-51 proliferation assay; format: cell-based; conditions: YO-PRO-1 Iodide readout
From the text: (§1) MDA-MB-231 and CAL-51 Proliferation Assay
(§2) Cells (MDA-MB-231 (American Type Culture Collection (ATCC), #HTB-26) or CAL-51 (Deutsche Sammlung von Mikroorganismen und Zellkulturen (DSMZ), #ACC302) as applicable) were cultivated in DMEM High Glucose (4.5 g/L) with L-Glutamine (BioConcept, cat. no. 1-26F03-I) supplemented with 1% Na-pyruvate (Sigma, cat. no. S8636), 1% Penicillin-Streptomycin (BioConcept, cat. no. 4-01F00H), and 10% FBS (Sigma, cat. no. F9665) using standard techniques. Cells were seeded in black, clear-bottom 384 well plates for tissue culture (Greiner Bio-One, cat. no. 781091) at a density of 750 cells per well in 20 μL medium and the plates were incubated overnight at 37° C. with 5% CO2 prior to treatment. Experimental compounds were serially diluted in DMSO to 200× the desired final concentrations. The solutions were then diluted 1:40 with culture medium and 5 μL aliquots were mixed into the wells containing the cells. The final concentration of DMSO was 0.5%. The plates were incubated for 72 hours and cell numbers were then measured using YO-PRO™-1 Iodide (ThermoFisher Scientific, cat. no. Y3603) essentially as recommended by the manufacturer. Briefly, a 12.5 μM solution of YO-PRO™_1 Iodide in 5× YO—PRO buffer (100 mM Na-citrate, 130 mM NaCl, pH 4) was combined with an equal volume of lysis buffer (0.6% NP-40, 30 mM EDTA, 30 mM EGTA, 0.33× YO—PRO buffer) and 12.5 μL of the mixture were dispensed into each well. The plates were incubated at room temperature in the dark for 30 minutes. Fluorescence intensity signals were then measured on a Synergy 4 reader (BioTek) using 485/20 nm and 530/25 nm filters for the excitation and emission, respectively. Relative proliferation values were calculated by normalizing the raw data using DMSO-treated cells (100% proliferation) and the signals obtained from cells that were evaluated at the time of compound addition (0% proliferation). The concentration-response data were fitted to a sigmoidal 4-parameter logistic model with the maximum constrained to 100%. GI50 values were calculated from the curves as the compound concentrations reducing proliferation to 50%.

[2] = target: T1, recombinant human CLK3 (Homo sapiens, UniProt P49761); test: CLK3 kinase assay (LANCE Ultra); format: biochemical; conditions: CLK3 0.5 nM, ATP 300 μM, 3 hours at 30° C.
T1 construct: purchased Thermo Fisher Scientific PV3826
Protocol: CLK3 kinase activity was measured using the LANCE® Ultra technology (PerkinElmer) essentially as recommended by the supplier. Briefly, 2.5 μL of test sample at 4× the desired final concentration in 4% DMSO were dispensed into white, low volume, round bottom, 384 well plates (Corning, cat. no. 4512). 5 μL of a mixture containing recombinant human CLK3 (Thermo Fisher Scientific, cat. no. PV3826) and the labeled peptide substrate ULight™-CREBtide (PerkinElmer, cat. no. TRF0107) prepared in 1.33× kinase buffer (Thermo Fisher Scientific, cat. no. PV3189) were then added. Finally, the reactions were started by adding 2.5 μL of a 4× solution of ATP in kinase buffer. The plates were sealed with adhesive foils and incubated for 3 hours at 30° C. in the dark. The final concentrations of CLK3, ULight™-CREBtide, and ATP were 0.5 nM, 50 nM, and 300 μM, respectively. 5 μL of 40 mM EDTA were then added to terminate the reactions. The Eu-anti-phospho-CREB antibody (PerkinElmer, cat. no. TRF0200) diluted in LANCE® detection buffer (PerkinElmer, cat. no. CR97) was then added to a final concentration of 2 nM and the reactions were incubated for 1 hour at room temperature in the dark. The signals were measured using a Synergy 4 reader (BioTek) with a 320/80 nm filter for the excitation and 620/10 nm and 665/8 nm filters for the donor and acceptor emission, respectively. Relative inhibition values were calculated by normalizing the raw data using solvent control wells (0% inhibition) and wells that received no ATP (100% inhibition). IC50 values were calculated by fitting the concentration-response data to a sigmoidal 4-parameter logistic model. IC50 values for CLK3 are determined from duplicate measurements at ten different concentrations (serial 1:3 dilutions).

[3] = tested on: MDA-MB-231 cells; test: MDA-MB-231 proliferation assay; format: cell-based; conditions: YO-PRO-1 Iodide readout
From the text: as §1, §2

T1 sequence (P49761 whole entry): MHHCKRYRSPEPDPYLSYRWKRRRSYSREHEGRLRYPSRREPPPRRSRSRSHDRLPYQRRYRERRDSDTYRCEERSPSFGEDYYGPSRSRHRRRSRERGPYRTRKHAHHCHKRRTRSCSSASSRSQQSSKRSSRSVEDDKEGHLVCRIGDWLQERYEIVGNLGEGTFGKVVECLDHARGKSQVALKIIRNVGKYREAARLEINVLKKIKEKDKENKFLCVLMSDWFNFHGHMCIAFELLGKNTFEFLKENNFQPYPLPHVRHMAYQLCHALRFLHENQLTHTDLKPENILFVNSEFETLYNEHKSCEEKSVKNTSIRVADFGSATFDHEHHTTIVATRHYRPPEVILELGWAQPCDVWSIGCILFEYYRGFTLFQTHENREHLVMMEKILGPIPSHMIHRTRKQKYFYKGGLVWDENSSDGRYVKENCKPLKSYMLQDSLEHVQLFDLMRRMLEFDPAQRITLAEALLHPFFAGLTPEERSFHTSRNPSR

SMILES | IC50 [2] [nM] | GI50 ([3]; Homo sapiens, MDA-MB-231, 72 h) [nM] | GI50 ([3]; 72 hours) [nM] | GI50 ([1]; Homo sapiens, CAL-51, 72 h) [nM] | GI50 ([1]; 72 hours) [nM]
COc1ccc2c(c1C)CC(C)(C)c1c(N)ncnc1-2 [Example 1, 8-methoxy-5,5,7-trimethyl-6H-benzo[h]quinazolin-4-amine] | < 30 | > 2000 | – | 100 to 2000 | –
COc1ccc2c(c1N)CC(C)(C)c1c(N)ncnc1-2 [Example 2, 8-methoxy-5,5-dimethyl-6H-benzo[h]quinazoline-4,7-diamine] | 30 to 100 | 100 to 2000 | – | 100 to 2000 | –
CC1(C)Cc2c(ccc3c2NCCO3)-c2ncnc(N)c21 [Example 3, 6,6-dimethyl-2,3,4,5-tetrahydroquinazolino[7,8-f][1,4]benzoxazin-7-amine] | 101 to 1000 | > 2000 | – | 100 to 2000 | –
CN1CCOc2ccc3c(c21)CC(C)(C)c1c(N)ncnc1-3 [Example 4, 4,6,6-trimethyl-3,5-dihydro-2H-quinazolino[7,8-f][1,4]benzoxazin-7-amine] | 30 to 100 | 100 to 2000 | – | 100 to 2000 | –
CC(=O)Nc1c(O[C@H]2CC[C@H](N)CC2)ccc2c1CC(C)(C)c1c(N)ncnc1-2 [Example 6, N-[4-amino-8-(trans-4-aminocyclohexoxy)-5,5-dimethyl-6H-benzo[h]quinazolin-7-yl]acetamide] | 101 to 1000 | > 2000 | – | 100 to 2000 | –
CC1(C)Cc2c(ccc(O[C@H]3CC[C@H](N)CC3)c2N(CCO)CCO)-c2ncnc(N)c21 [Example 11, 2-[[4-amino-8-(trans-4-aminocyclohexoxy)-5,5-dimethyl-6H-benzo[h]quinazolin-7-yl]-(2-hydroxyethyl)amino]ethanol] | < 30 | > 2000 | – | 100 to 2000 | –
CC1(C)Cc2c(ccc(O[C@H]3CC[C@H](N)CC3)c2NCCO)-c2ncnc(N)c21 [Example 14, 2-[[4-amino-8-(trans-4-aminocyclohexoxy)-5,5-dimethyl-6H-benzo[h]quinazolin-7-yl]amino]ethanol] | < 30 | 100 to 2000 | – | 100 to 2000 | –
CCN(CCO)c1c(O[C@H]2CC[C@@H](N)CC2)ccc2c1CC(C)(C)c1c(N)ncnc1-2 [Example 22, 2-[[4-amino-8-(4-cis-aminocyclohexoxy)-5,5-dimethyl-6H-benzo[h]quinazolin-7-yl]-ethyl-amino]ethanol] | < 30 | 100 to 2000 | – | < 100 | –
CCCN(CCO)c1c(O[C@H]2CC[C@@H](N)CC2)ccc2c1CC(C)(C)c1c(N)ncnc1-2 [Example 23, 2-[[4-amino-8-(cis-4-aminocyclohexoxy)-5,5-dimethyl-6H-benzo[h]quinazolin-7-yl]-propyl-amino]ethanol] | < 30 | 100 to 2000 | – | 100 to 2000 | –
CN(CCO)c1c(O[C@H]2CC[C@@H](N)CC2)ccc2c1CC(C)(C)c1c(N)ncnc1-2 [Example 24, 2-[[4-amino-8-(cis-4-aminocyclohexoxy)-5,5-dimethyl-6H-benzo[h]quinazolin-7-yl]-methyl-amino]ethanol] | < 30 | < 100 | – | < 100 | –
COc1ccc2c(c1N1CC(O)C1)CC(C)(C)c1c(N)ncnc1-2 [Example 25, 1-(4-amino-8-methoxy-5,5-dimethyl-6H-benzo[h]quinazolin-7-yl)azetidin-3-ol] | 101 to 1000 | 100 to 2000 | – | 100 to 2000 | –
CNC(=O)CN(C)c1c(O[C@H]2CC[C@@H](N)CC2)ccc2c1CC(C)(C)c1c(N)ncnc1-2 [Example 26, 2-[[4-amino-8-(cis-4-aminocyclohexoxy)-5,5-dimethyl-6H-benzo[h]quinazolin-7-yl]-methyl-amino]-N-methyl-acetamide] | 101 to 1000 | > 2000 | – | > 2000 | –

The next lines start with results.

IC50 [2] [nM] | GI50 ([3]; Homo sapiens, MDA-MB-231, 72 h) [nM] | GI50 ([3]; 72 hours) [nM] | SMILES | GI50 ([1]; Homo sapiens, CAL-51, 72 h) [nM] | GI50 ([1]; 72 hours) [nM]
< 30 | 100 to 2000 | – | CC1(C)Cc2c(ccc(O[C@H]3CC[C@H](N)CC3)c2N2CCC(O)C2)-c2ncnc(N)c21 (single isomer, unassigned) [Example 15, 1-[4-amino-8-(trans-4-aminocyclohexoxy)-5,5-dimethyl-6H-benzo[h]quinazolin-7-yl]pyrrolidin-3-ol] | < 100 | –
< 30 | < 100 | – | CC1(C)Cc2c(ccc(O[C@H]3CC[C@H](N)CC3)c2N2CCC(C#N)C2)-c2ncnc(N)c21 (single isomer, unassigned) [Example 49, 1-[4-amino-8-(trans-4-aminocyclohexoxy)-5,5-dimethyl-6H-benzo[h]quinazolin-7-yl]pyrrolidine-3-carbonitrile] | < 100 | –
< 30 | – | < 100 | CC1(C)Cc2c(ccc(O[C@H]3CC[C@H](N)CC3)c2N2CCC(C#N)C2)-c2ncnc(N)c21 (single isomer, unassigned) [Example 50, 1-[4-amino-8-(trans-4-aminocyclohexoxy)-5,5-dimethyl-6H-benzo[h]quinazolin-7-yl]pyrrolidine-3-carbonitrile] | – | < 100
30 to 100 | 100 to 2000 | – | COC1CCN(c2c(O[C@H]3CC[C@H](N)CC3)ccc3c2CC(C)(C)c2c(N)ncnc2-3)C1 (single isomer, unassigned) [Example 63, 8-(trans-4-aminocyclohexoxy)-7-(3-methoxypyrrolidin-1-yl)-5,5-dimethyl-6H-benzo[h]quinazolin-4-amine] | 100 to 2000 | –
30 to 100 | – | < 100 | COC1CCN(c2c(O[C@H]3CC[C@H](N)CC3)ccc3c2CC(C)(C)c2c(N)ncnc2-3)C1 (single isomer, unassigned) [Example 73, 8-(trans-4-aminocyclohexoxy)-7-(3-methoxypyrrolidin-1-yl)-5,5-dimethyl-6H-benzo[h]quinazolin-4-amine] | – | < 100
< 30 | 100 to 2000 | – | CC1(C)Cc2c(ccc(O[C@H]3CC[C@H](N)CC3)c2N)-c2ncnc(N)c21 [Example 5, 8-(trans-4-aminocyclohexoxy)-5,5-dimethyl-6H-benzo[h]quinazoline-4,7-diamine] | 100 to 2000 | –
< 30 | 100 to 2000 | – | CC1(C)Cc2c(ccc(O[C@H]3CC[C@H](N)CC3)c2N2CCCCC2)-c2ncnc(N)c21 [Example 9, 8-(trans-4-aminocyclohexoxy)-5,5-dimethyl-7-(1-piperidyl)-6H-benzo[h]quinazolin-4-amine] | < 100 | –
30 to 100 | 100 to 2000 | – | CC1(C)Cc2c(ccc(O[C@H]3CC[C@H](N)CC3)c2N2CCOCC2)-c2ncnc(N)c21 [Example 10, 8-(trans-4-aminocyclohexoxy)-5,5-dimethyl-7-morpholino-6H-benzo[h]quinazolin-4-amine] | 100 to 2000 | –
101 to 1000 | 100 to 2000 | – | COCCNc1c(O[C@H]2CC[C@H](N)CC2)ccc2c1CC(C)(C)c1c(N)ncnc1-2 [Example 18, 8-(trans-4-aminocyclohexoxy)-N7-(2-methoxyethyl)-5,5-dimethyl-6H-benzo[h]quinazoline-4,7-diamine] | 100 to 2000 | –
30 to 100 | 100 to 2000 | – | CCCOc1c(O[C@H]2CC[C@H](N)CC2)ccc2c1CC(C)(C)c1c(N)ncnc1-2 [Example 19, 8-(trans-4-aminocyclohexoxy)-5,5-dimethyl-7-propoxy-6H-benzo[h]quinazolin-4-amine] | 100 to 2000 | –
